Assay results as given in publication PMC10224536 (Molecules, 2023).

Key:
Aβ = details: FDA-approved Aβ PET tracers; cited from earlier work
[1] = biological target: T1, synthetic human Aβ1-42 fibrils (Homo sapiens, UniProt P05067); experiment: Competition binding assay against [^3H]SIL26 on Aβ1-42 fibrils
T1 construct: Synthetic lyophilized human Aβ1-42 peptide; purchased EMC Microcollections, Tuebingen, Germany; host or cells: chemical synthesis
Description: (§1) The generation of Aβ1-42 fibrils was adapted from Bagchi et al. and described by Kuebler et al.. Synthetic lyophilized human Aβ1-42 peptide (5 mg) with >90% purity (EMC Microcollections, Tuebingen, Germany) was dissolved in DMSO (221.5 µL). […] . The monomers were incubated in an Eppendorf Thermomixer at 37 °C with shaking at 800 rpm for 72 h to induce aggregation. Generated fibrils were sonicated for three minutes in a water bath (Elmasonic S 60 H, Elma Schmidbauer GmbH, Singen, Germany). The final products were aliquoted, frozen on dry ice, and stored at −80 °C until use.
(§2) Plates were incubated on a shaker (MaxQ 6000, Thermo Fisher Scientific Inc., Marietta, OH, USA) at 50 rpm for 2 h at 37 °C, covered by removable sealing tape (PerkinElmer, Waltham, MA, USA). Vacuum filtration and read-out were performed as previously reported. Briefly, a glass fiber Filtermat B (PerkinElmer, Waltham, MA, USA) incubated with 0.5% polyethylenimine (PEI; Sigma Aldrich Chemie GmbH, Munich, Germany) for 30 min at 4 °C prior to filter harvesting was used with a FilterMate Harvester (PerkinElmer, Waltham, MA, USA). Melt-on scintillator sheets (MeltiLex B/HS, PerkinElmer, Waltham, MA, USA) were melted onto dried filters. Accumulation of tritium was counted in a liquid scintillation Wallac MicroBeta TriLux counter (PerkinElmer, Waltham, MA, USA) at two minutes/well.
(§3) . Data points were fitted using non-linear regression analysis in GraphPad Prism (GraphPad Software, Inc., Version 8.4.0, San Diego, CA, USA).

[2] = biological target: T2, human recombinant αSYN fibrils (Homo sapiens, UniProt P37840); experiment: Competition binding assay against [^3H]SIL26 on αSYN fibrils
Description: (§4) The concentrations of αSYN fibrils and Aβ1-42 fibrils as above were used.
(§5) Plates were incubated on a shaker (MaxQ 6000, Thermo Fisher Scientific Inc., Marietta, OH, USA) at 50 rpm for 2 h at 37 °C, covered by removable sealing tape (PerkinElmer, Waltham, MA, USA). Vacuum filtration and read-out were performed as previously reported [18]. Briefly, a glass fiber Filtermat B (PerkinElmer, Waltham, MA, USA) incubated with 0.5% polyethylenimine (PEI; Sigma Aldrich Chemie GmbH, Munich, Germany) for 30 min at 4 °C prior to filter harvesting was used with a FilterMate Harvester (PerkinElmer, Waltham, MA, USA). Melt-on scintillator sheets (MeltiLex B/HS, PerkinElmer, Waltham, MA, USA) were melted onto dried filters. Accumulation of tritium was counted in a liquid scintillation Wallac MicroBeta TriLux counter (PerkinElmer, Waltham, MA, USA) at two minutes/well.

[3] = biological target: T2, human recombinant αSYN fibrils; experiment: Competition binding assay against [^3H]MODAG−001 on αSYN fibrils; details: for αSYN—Ki [^3H]MODAG−001: competition vs 1 nM [^3H]MODAG−001, αSYN fibrils 50 nM, mean ± SEM
Description: as §4, §5

[4] = biological target: T1, synthetic human Aβ1-42 fibrils; experiment: Competition binding assay against [^3H]MODAG−001 on Aβ1-42 fibrils; details: competition vs 1 nM [^3H]MODAG−001, Aβ1-42 fibrils 1 µM; mean ± SEM; read-out: Aβ—Ki [^3H]MODAG−001
Description: as §1, §2, §3

αSYN = details: carbon-11 labeled PET tracer; cited from earlier work
[5] = competition vs [^3H]SIL26 (7 nM), αSYN fibrils 35 nM, mean ± SEM

T1 sequence (P05067 672-713 limits assumed): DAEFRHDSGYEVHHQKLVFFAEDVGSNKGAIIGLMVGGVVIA

Row | SMILES | Ki [1] [nM] | Ki [2] [nM] | Ki [3] [nM] | Ki [4] [nM] | also measured
1 | CNc1ccc(/C=C/c2ccc(OCCOCCOCCF)cc2)cc1 [Florbetaben] |  |  |  |  | Ki (Aβ): 6.7 ± 0.3 nM
2 | FCCOc1ccc2c(c1)Sc1cc(-c3cc(-c4ccccc4)n[nH]3)ccc1N2 [DAP2a, 3-(2-Fluoroethoxy)-7-(3-phenyl-1H-pyrazol-5-yl)-10H-phenothiazine] | 25.8 ± 5.8 | > 400 | 144 ± 49.5 | 7.7 ± 1.7 | 
3 | COc1ccc2c(c1)Sc1cc(-c3cc(-c4ccccn4)n[nH]3)ccc1N2 [DAP1b, 3-Methoxy-7-(3-(pyridin-2-yl)-1H-pyrazol-5-yl)-10H-phenothiazine] | 7.6 | 90.1 ± 56.8 | 69.9 ± 14.9 | 10.3 ± 0.8 | 
4 | COc1ccc2c(c1)Sc1cc(-c3cc(-c4ccccc4)n[nH]3)ccc1N2 [DAP1a, 3-Methoxy-7-(3-phenyl-1H-pyrazol-5-yl)-10H-phenothiazine] | 10.7 | 186 ± 145 | 289 ± 159 | 10.5 ± 0.9 | 
5 | CN(C)c1ccc(-c2cc(-c3ccnc(Br)c3)n[nH]2)cc1 [MODAG−001, reference compound] |  |  |  |  | Ki ([2]; read-out: αSYN—Ki [^3H]SIL26, competition vs [^3H]SIL26 (7 nM), αSYN fibrils 35 nM, mean ± SEM): 10.8 nM; Kd (αSYN): 0.6 ± 0.1 nM
6 | CNc1ccc(/C=C/c2ccc(OCCOCCOCCF)nc2)cc1 [Florbetapir] |  |  |  |  | Kd (Aβ): 3.72 ± 0.3 nM
7 | CNc1ccc(-c2nc3ccc(O)cc3s2)cc1F [Flutemetamol] |  |  |  |  | Ki (Aβ): 0.74 ± 0.38 nM
8 | COc1cccc(Sc2cc(-c3cc(-c4cccc(F)c4)n[nH]3)ccc2N)c1 [DAP3c, 4-(3-(3-Fluorophenyl)-1H-pyrazol-5-yl)-2-((3-methoxyphenyl)thio)aniline] |  |  |  | > 400 | αSYN—Ki [^3H]SIL26 [2, 5]: no competition ^a; αSYN—Ki [^3H]MODAG−001 [3]: no competition
9 | COc1cccc(Sc2cc(-c3cc(-c4ccccc4)n[nH]3)ccc2N)c1 [DAP3a, 2-((3-Methoxyphenyl)thio)-4-(3-phenyl-1H-pyrazol-5-yl)aniline] | 86.1 |  |  | > 400 | αSYN—Ki [^3H]SIL26 [2, 5]: no competition ^a; αSYN—Ki [^3H]MODAG−001 [3]: no competition
10 | COc1ccc2c(c1)Sc1cc(-c3cc(-c4cccc(F)c4)n[nH]3)ccc1N2 [DAP1c, 3-(3-(3-Fluorophenyl)-1H-pyrazol-5-yl)-7-methoxy-10H-phenothiazine] | 1 | > 400 | > 400 | 15.9 ± 2.4 | 
11 | CN(C)c1ccc(-c2cc(-c3cccc(Br)c3)[nH]n2)cc1 [[^11C]anle253b] |  |  |  |  | IC50 (αSYN): 1.6 nM
12 | FCCOc1ccc2c(c1)Sc1cc(-c3cc(-c4ccccn4)n[nH]3)ccc1N2 [DAP2b, 3-(2-Fluoroethoxy)-7-(3-(pyridin-2-yl)-1H-pyrazol-5-yl)-10H-phenothiazine] | 65.8 ± 56.4 | > 400 | 107 ± 31.4 | 12.2 ± 1.7 | 
13 | FCCOc1ccc2c(c1)Sc1cc(-c3cc(-c4cccc(F)c4)n[nH]3)ccc1N2 [DAP2c, 3-(2-Fluoroethoxy)-7-(3-(3-fluorophenyl)-1H-pyrazol-5-yl)-10H-phenothiazine] | 3.1 ± 2.1 | > 400 | 212 ± 93.8 | 8 ± 1.3 | 
14 | COc1cccc(Sc2cc(-c3cc(-c4ccccn4)n[nH]3)ccc2N)c1 [DAP3b, 2-((3-Methoxyphenyl)thio)-4-(3-(pyridin-2-yl)-1H-pyrazol-5-yl)aniline] |  |  |  | > 400 | αSYN—Ki [^3H]SIL26 [2, 5]: no competition ^a; αSYN—Ki [^3H]MODAG−001 [3]: no competition
